# According to paper PMC10454409, “Hybrids of Sterically Hindered Phenols and Diaryl Ureas: Synthesis, Switch from Antioxidant Activity to ROS Generation and Induction of Apoptosis” (International Journal of Molecular Sciences, 2023):
# Like-named read-outs stand apart in the source and are kept apart here.
# Key:
# [1] = test system: M-HeLa cells (human cervix epithelioid carcinoma); assay: MTT cytotoxicity test, M-HeLa; format: cell-based; details: for IC50: Homo sapiens, M-HeLa, MTT test, 24 h incubation per text, 48 h per method
# Excerpt: (§1) For the experiments, we used tumor cell cultures M-HeLa clone 11 (epithelioid carcinoma of the cervix, subline HeLa., clone M-HeLa), HuTu 80 (human duodenal adenocarcinoma) and MCF7 (human breast adenocarcinoma (pleural fluid)) from the collection of the Institute of Cytology, Russian Academy of Sciences (St. Petersburg); human liver cells (Chang liver) from the collection of the Research Institute of Virology at the Russian Academy of Medical Sciences (Moscow); and SH-SY5Y (neuroblastoma)from the Laboratory of Tumor Cell Genetics at the Scientific Research Institute of Carcinogenesis N.N. Blokhin National Medical Research Center of Oncology.
# (§2) The cytotoxic effect on cells was determined using the colorimetric method of cell proliferation—the MTT test. NADP-H-dependent cellular oxidoreductase enzymes can, under certain conditions, reflect the number of viable cells. These enzymes are able to reduce the tetrazolium dye (MTT)-3-(4,5-dimethylthiazol-2-yl)-2,5-diphenyl-tetrazolium bromide to insoluble blue-violet formazan, which crystallizes inside the cell. The amount of formazan formed is proportional to the number of cells with active metabolism.
# (§3) Cells were seeded on a 96-well Nunc plate at a concentration of 5 × 10^3 cells per well in a volume of 100 μL of medium and cultured in a CO2 incubator at 37 °C until a monolayer was formed. […] After 48 h, the nutrient medium was removed from the plates and 100 µL of the nutrient medium without serum with MTT at a concentration of 0.5 mg/mL was added and incubated for 4 h at 37 °C. Formazan crystals were […] 100 µL of DMSO in each well. Optical density was recorded at 540 nm on an in vitro logic microplate reader (Russia). The experiments for all compounds were repeated in triplicate.
# (§4) IC50 values were estimated using the Quest Graph IC50 Calculator (AAT Bioquest, Inc., Sunnyvale, CA, USA) (Version 2022) (accessed on 25 June 2022).
# [2] = test system: SH-SY5Y cells (neuroblastoma); assay: MTT cytotoxicity test, SH-SY5Y; format: cell-based; details: for IC50: Homo sapiens, SH-SY5Y, MTT test, 24 h incubation per text, 48 h per method
# Excerpt: as §1, §2, §3, §4
# [3] = test system: MCF-7 cells (human breast adenocarcinoma); assay: MTT cytotoxicity test, MCF-7; format: cell-based; details: for IC50: 24 h incubation per text, 48 h per method; for SI, selectivity index relative to Chang liver, MCF-7: MCF-7 vs Chang liver
# Experimental: as §2
# Formazan crystals were added to 100 µL of DMSO in each well. Optical density was recorded at 540 nm on an in vitro logic microplate reader (Russia). The experiments for all compounds were repeated in triplicate.
# [4] = test system: Chang liver cells (human liver cells, normal cell line); assay: MTT cytotoxicity test, Chang liver normal cells; format: cell-based; details: 48 h incubation
# Excerpt: as §1, §2, §3, §4
# [5] = test system: HuTu 80 cells (human duodenal adenocarcinoma); assay: MTT cytotoxicity test, HuTu 80; format: cell-based; details: Homo sapiens
# Excerpt: as §1, §2, §3, §4
# [6] = test system: isolated rat liver mitochondria; assay: Membrane potential of isolated mitochondria (Safranin A); format: biochemical
# Experimental: The membrane potential of rat […] mitochondria was measured with a Victor 3 plate analyzer (Perkin Elmer, Hamburg, Germany) using the potential-dependent indicator Safranin A [57]. The mitochondrial preparation was diluted in a buffer containing mannitol (225 mM) (Dia-M, Moscow, Russia), sucrose (75 mM) (Sigma Aldrich, Saint Louis, MO, USA), HEPES (10 mM) (Gibco, Scotland, UK), EGTA (20 µM) (Dia-M, Moscow, Russia) and KH2PO4 (1 mM) at pH = 7.4 at a ratio of 0.5 mg of protein to 1 mL of medium. Safranin A (5 µM) was added to the suspension immediately before the start of the measurement. The organelles were then energized by potassium succinate (5 mM) in the presence of rotenone (1 µM). Mitochondrial pore opening was induced by the addition of CaCl2 (25 µM).
# Figure 8 Effect of the synthesized compounds on the membrane potential of rat liver mitochondria. (a) Kinetic lines of transmembrane potential changes at λex = 458 nm and λem = 590 nm. The concentration of the test substances was 100 µM. (b) Calculated parameters of % depolarization relative to control samples. Statistical significance was assessed using one-way ANOVA and Dunnett’s multiple comparison tests, where **** p < 0.0001 vs. control. (c) Concentration dependence of the effects of 11b and 17b on mitochondrial membrane potential. The concentration of the test substances was from 20 to 200 µM. Concentration of ions; Ca^2+—25 µM. Mitochondria were energized by potassium succinate and rotenone. Data are presented as mean±error of the mean (n = 3).
# [7] = test system: SH-SY5Y neuroblastoma cells; assay: Glycolysis stress test (Seahorse XF96e, ECAR); format: cell-based; details: compound 100 µM; for Glycolysis: rate of extracellular acidification after saturating glucose: glucose 10 mM; for Glycolytic capacity: oligomycin 1 µM
# Experimental: We studied the ability of compounds to inhibit aerobic glycolysis using the Agilent Seahorse XF96e Analyzer (Seahorse Bioscience, North Billerica, MA, USA) assay of cellular metabolism on the level of proton production in samples examined on the SH-SY5Y neuroblastoma cell line using glycolysis stress tests. The extracellular acidification rate of the medium was measured in real time, which allowed us to assess the intensity of glycolysis in the cells by recording the main parameters of glycolytic function: basal glycolysis, glycolytic capacity and glycolytic reserve. Glycolytic capacity describes the maximum amount of glycolysis/glucose breakdown the cells can perform acutely, whereas glycolytic reserve is defined as the difference between the basal and maximal glycolytic capacity.
# The ability of synthesized compounds to modulate […] glycolysis was studied using the Agilent Seahorse XF96e Analyzer (Seahorse Bioscience, Billerica, MA, USA) on the neuroblastoma SH-SY5Y cell line (40,000 cells per well) as described earlier.
# Glycolysis was measured by subtracting the maximum rate of extracellular acidification of the medium before glucose injection from the maximum rate before oligomycin injection. Glycolytic capacity was measured by subtracting the maximum velocity value before glucose injection from the maximum velocity value after oligomycin injection. Glycolytic reserve was defined as the difference between glycolytic capacity and glycolysis.
# Figure 6 Effect of synthesized compounds on the glycolytic profile of (a–c) SH-SY5Y tumor cells and (d) calculated parameters of glycolytic function. […] The concentration of compounds was 100 µM, glucose—10 mM, oligomycin—1 µM и 2-fluoro-2-deoxy-D-glucose—25 mM. Data are presented as mean±error of the mean (n = 3). Statistical significance was assessed using one-way ANOVA and Dunnett’s multiple comparison tests, where **** p < 0.0001, *** p < 0.001, ** p < 0.01 and * p < 0.05 vs. control.
# HuTu 80 cells = assay: Intracellular ROS level, CellROX Deep Red flow cytometry; format: cell-based, human; details: 48 h incubation, maximum concentration (IC50)
# [8] = HuTu80, read-out: IC50, HuTu 80
# [9] = HuTu80, MTT test, 24 h incubation per text, 48 h per method, read-out: IC50, HuTu 80
SMILES,IC50 [1],IC50 [2],"IC50 ([3]; Homo sapiens, MCF7, MTT test)",IC50 [4],"IC50 [5, 8]","SI, selectivity index relative to Chang liver, SH-SY5Y ([2]; SH-SY5Y vs Chang liver)","SI, selectivity index relative to Chang liver, MCF-7 [3]","IC50 [5, 9]","SI, selectivity index relative to Chang liver, M-HeLa ([1]; M-HeLa vs Chang liver)","Depolarization of mitochondrial membrane ([6]; isolated mitochondria, compound 100 μM)","Depolarization relative to control (class in Figure 8b) ([6]; isolated rat liver mitochondria, compound 100 µM)",Glycolytic reserve [7],Glycolysis: rate of extracellular acidification after saturating glucose [7],Glycolytic capacity [7],Intracellular ROS level (HuTu 80 cells),IC50 ([3]; MTT test)
COP(=O)(OC)C(c1cc(C(C)(C)C)c(O)c(C(C)(C)C)c1)c1ccc(N)nc1N (centres unmarked) [3a],16.1 ± 1.3 µM,> 100 µM,31 ± 2.6 µM,> 100 µM,> 100 µM,,,,,,,,,,,
CCOP(=O)(OCC)C(c1cc(C(C)(C)C)c(O)c(C(C)(C)C)c1)c1ccc(N)nc1N (centres unmarked) [3b],17.1 ± 1.3 µM,77 ± 1.9 µM,34.2 ± 3 µM,> 100 µM,86.6 ± 6.8 µM,,,,,,,,,,,
CC(C)OP(=O)(OC(C)C)C(c1cc(C(C)(C)C)c(O)c(C(C)(C)C)c1)c1ccc(N)nc1N (centres unmarked) [3c],38 ± 2.8 µM,30.4 ± 0.7 µM,21.8 ± 1.7 µM,100 ± 2.7 µM,,~3,~5,> 100 µM,,,,,,,,
CC(C)(C)c1cc(C(c2ccc(N)nc2N)P(=O)(Oc2ccccc2)Oc2ccccc2)cc(C(C)(C)C)c1O (centres unmarked) [3d],7.4 ± 0.7 µM,18.8 ± 0.2 µM,16.4 ± 1.7 µM,52.3 ± 3.5 µM,63.2 ± 5.6 µM,,~3,,~7,,,,,,,
CCOP(=O)(OCC)C(c1cc(C(C)(C)C)c(O)c(C(C)(C)C)c1)c1ccc(NC(=O)Nc2ccccc2)nc1NC(=O)Nc1ccccc1 (centres unmarked) [5b],62.5 ± 5.2 µM,17.9 ± 1.9 µM,36.3 ± 2.8 µM,31.4 ± 2.4 µM,20 ± 1.7 µM,,,,,,,,,,,
CCOP(=O)(OCC)C(c1cc(C(C)(C)C)c(O)c(C(C)(C)C)c1)c1ccc(NC(=O)Nc2cccc(C)c2)nc1NC(=O)Nc1cccc(C)c1 (centres unmarked) [8b],62 ± 2.2 µM,41 ± 0.3 µM,35.4 ± 2.8 µM,13 ± 1.2 µM,< 15 µM,,,8 ± 0.6 µM,,,,,,,,
Cc1ccc(NC(=O)Nc2ccc(C(c3cc(C(C)(C)C)c(O)c(C(C)(C)C)c3)P(=O)(Oc3ccccc3)Oc3ccccc3)c(NC(=O)Nc3ccc(C)cc3)n2)cc1 (centres unmarked) [9d],78.9 ± 6.2 µM,> 100 µM,76.6 ± 6.2 µM,> 100 µM,50 ± 4 µM,,,,,,,,,,,
CCOP(=O)(OCC)C(c1cc(C(C)(C)C)c(O)c(C(C)(C)C)c1)c1ccc(NC(=O)Nc2ccc(OC)cc2)nc1NC(=O)Nc1ccc(OC)cc1 (centres unmarked) [10b],> 100 µM,> 100 µM,82.1 ± 6.5 µM,81.2 ± 6.4 µM,45 ± 3.6 µM,,,,,,,,,,,
CCOP(=O)(OCC)C(c1cc(C(C)(C)C)c(O)c(C(C)(C)C)c1)c1ccc(NC(=O)Nc2ccc(Cl)cc2)nc1NC(=O)Nc1ccc(Cl)cc1 (centres unmarked) [11b],70 ± 5.5 µM,46.4 ± 0.92 µM,63.1 ± 4.9 µM,99.4 ± 7.8 µM,25.7 µM,,,,,50%,High Depolarization,ability to decrease glycolytic reserves,decrease in the rate of extracellular acidification,decrease in glycolytic capacity,670.7 ± 7.2%,
COP(=O)(OC)C(c1cc(C(C)(C)C)c(O)c(C(C)(C)C)c1)c1ccc(NC(=O)Nc2cccc(C)c2)cc1NC(=O)Nc1cccc(C)c1 (centres unmarked) [13a],75 ± 6 µM,> 100 µM,77.4 ± 6.3 µM,92 ± 7.2 µM,75.1 ± 6.1 µM,,,,,,,,,,,
CCOP(=O)(OCC)C(c1cc(C(C)(C)C)c(O)c(C(C)(C)C)c1)c1ccc(NC(=O)Nc2cccc(C)c2)cc1NC(=O)Nc1cccc(C)c1 (centres unmarked) [13b],96.3 ± 7.5 µM,86.3 ± 4 µM,57.7 ± 4.6 µM,68.2 ± 5.4 µM,40.1 ± 3.1 µM,,,,,,,,,,,
CCOP(=O)(OCC)C(c1cc(C(C)(C)C)c(O)c(C(C)(C)C)c1)c1ccc(NC(=O)Nc2ccc(C)cc2)cc1NC(=O)Nc1ccc(C)cc1 (centres unmarked) [14b],14.1 ± 1.2 µM,27 ± 1.1 µM,< 15 µM,21 ± 1.8 µM,15.7 ± 1.3 µM,,,,,,,,decrease in the rate of extracellular acidification,decrease in glycolytic capacity,,13.7 ± 1.2 µM
CCOP(=O)(OCC)C(c1cc(C(C)(C)C)c(O)c(C(C)(C)C)c1)c1ccc(NC(=O)Nc2ccc(OC)cc2)cc1NC(=O)Nc1ccc(OC)cc1 (centres unmarked) [15b],> 100 µM,> 100 µM,96.3 ± 7.6 µM,96 ± 7.6 µM,58.7 ± 4.6 µM,,,,,,,,,,,
CCOP(=O)(OCC)C(c1cc(C(C)(C)C)c(O)c(C(C)(C)C)c1)c1ccc(NC(=O)Nc2ccc(Cl)cc2)cc1NC(=O)Nc1ccc(Cl)cc1 (centres unmarked) [16b],100 ± 8.6 µM,> 100 µM,> 100 µM,> 100 µM,61 ± 4.8 µM,,,,,,,,,,,
COP(=O)(OC)C(c1cc(C(C)(C)C)c(O)c(C(C)(C)C)c1)c1ccc(NC(=O)Nc2ccc([N+](=O)[O-])cc2)cc1NC(=O)Nc1ccc([N+](=O)[O-])cc1 (centres unmarked) [17a],60 ± 4.7 µM,> 100 µM,73.6 ± 5.8 µM,86 ± 6.6 µM,41 ± 3.1 µM,,,,,,,,,,,
"CNC(=O)c1cc(Oc2ccc(NC(=O)Nc3ccc(Cl)c(C(F)(F)F)c3)cc2)ccn1 [SF, sorafenib, reference compound]",25 ± 1.9 µM,,,21.7 ± 1.7 µM,,,,6.2 ± 0.5 µM,,,,,,,,
